The test deals with Caspase-8 (Homo sapiens, UniProt Q14790). The test is described as follows: Enzyme Inhibition Assay. How it is done: The caspase enzymatic activity was determined by measuring the accumulation of a fluorogenic product. All assays were prepared in 96-well format. Recombinant caspase enzyme was first assayed to determine the optimal concentration for each experiment. Peptide inhibitors with known IC50 values were tested together with the compounds as a control for each caspase assay. […] Compounds were tested in duplicate and IC50 curves were calculated for all inhibitors assayed.
Caspase-8, sequence (Q14790 217-374 limits assumed): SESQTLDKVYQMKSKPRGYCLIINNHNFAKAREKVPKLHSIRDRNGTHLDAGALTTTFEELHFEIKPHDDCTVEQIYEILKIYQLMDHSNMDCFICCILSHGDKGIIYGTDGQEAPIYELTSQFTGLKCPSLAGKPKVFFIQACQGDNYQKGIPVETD
Caspase-8, sequence (Q14790 385-479 limits assumed): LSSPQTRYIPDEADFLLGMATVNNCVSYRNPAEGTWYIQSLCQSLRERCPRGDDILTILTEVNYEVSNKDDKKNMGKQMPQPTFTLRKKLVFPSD

Where a SMILES comes first, the peptide text is derived from it. [ ]: non-standard residue; d: D form. ξ: configuration not given here. Ile(3ξ) = CCC(C)[C@H](N)C(=O)O; Thr(3ξ) = CC(O)[C@H](N)C(=O)O

The term IC50 denotes the concentration at which inhibition is half-maximal.

`CCC(C)[C@H](NC(C)=O)C(=O)N[C@@H](CCC(=O)O)C(=O)N[C@H](C(=O)N[C@H](C=O)CC(=O)O)C(C)O` (stereo partly drawn) [(4S)-4-{[(1S)-1-{[(2S)-1-carboxy-3-oxopropan-2-yl]carbamoyl}-2-hydroxypropyl]carbamoyl}-4-[(2S)-2-acetamido-3-methylpentanamido]butanoic acid] (Ac-[Ile(3ξ)]E[Thr(3ξ)]D-aldehyde): the IC50 was 4.2 nM.

These data come from BindingDB's records for doi:10.1021/jm900135r (Washington University, 2009).
